Test results reported in publication PMC10484922, “Discovery of a selective and biologically active low-molecular weight antagonist of human interleukin-1β” (Nature Communications, 2023).
Several values for one entry are separate records, joined by “and”; a condition that tells them apart may be missing. Equal entries are not always repeated. Where two headings read alike, the source gives them in different places. One block for each compound: values may come before it.

Tests used:
[1] = biological target: T1, IL-1β (Homo sapiens, UniProt P01584); assay: 19F-reporter displacement assay with (S)-1 as probe; assay type: binding; parameters: Mature hIL-1β was expressed in Escherichia coli; made in house; host or cells: Escherichia coli BL21 (DE3), pET17b
T1 sequence (P01584 117-269): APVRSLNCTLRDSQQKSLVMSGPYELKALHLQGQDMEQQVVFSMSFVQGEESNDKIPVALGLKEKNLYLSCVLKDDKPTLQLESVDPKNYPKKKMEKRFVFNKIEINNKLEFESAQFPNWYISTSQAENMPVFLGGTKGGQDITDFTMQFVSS
Protocol: Protein and reporter concentrations were 10 and 40 μM, respectively. To account for changes in sample homogeneity, samples contained 1-(2,2,2-trifluoroacetyl)piperidine-4-carboxylic acid as an internal reference for scaling signal intensities. Three concentrations of the competitor were typically measured, and the related displacement of the probe was converted into Ki-values according to Dalvit and Vulpetti[17]. […] This process was automated with FRPipe, an in-house developed Python script (https://github.com/Novartis/FRPipe) that allows for streamlined analysis of such experiments. […] For visual inspection, an overview containing relevant ^19F peaks, fitting curves, and proton spectra was plotted.
Supplementary Figure 2. 13C-NMR and 19F-NMR reporter assays to monitor early structure activity relationships of analogues of 1. a, b Early structure activity relationships monitored by protein-observed and c-f 19F-NMR reporter assays, exemplified for compound 8. a 1H-13C-HMQC spectra of hIL-1b (50 µM) were acquired in the presence (red) and absence (blue) of 500 µM compound and rows were extracted at the w1-frequency of the peak corresponding to Leu60 Cd1H3. b The degree of protein binding was estimated from the ratio I/I0, where I and I0 correspond to the signal in the presence and absence of compound, respectively. c For the assessment of the KI-values, the signal intensity of a reporter molecule (S)-1 was monitored in 19F-transverse relaxation experiments run in the absence and presence of increasing amounts of compound. d All intensities were scaled to the intensity of an internal standard (all signals in panel c and d are shifted on the X-axis for clarity). e KI-values were retrieved from theoretical binding curves calculated for each compound concentration8. f One-dimensional 1H-NMR spectra were recorded for each assay mixture to assess the structural integrity and solubility of the compound in the sample.
(1 picture or pasted object on this page, not shown here)

[2] = biological target: T1, IL-1β; assay: SPR binding of compounds to immobilized hIL-1β; parameters: Mature hIL-1β was expressed in Escherichia coli; made in house; host or cells: Escherichia coli BL21 (DE3), pET17b
Protocol: All SPR experiments were performed with an SPR-32 instrument (Bruker Daltonics SPR, Hamburg, Germany). SPR chips were from XanTec bioanalytics GmbH (Düsseldorf, Germany).
C-terminally avi-tagged hIL-1β protein was immobilized onto a SAHC200M chip with a neutravidin-coated surface. Immobilization was performed with a protein injection of 0.02 mg/ml IL-1β diluted in PBS pH 7.5 (Gibco 70011-036, 10×), 0.05% Tween-20 for 5 min at 10 μl/min. The running buffer for binding studies of compounds was PBS pH 7.4, 0.05% Tween-20, and 2% DMSO. For the correction of small DMSO variations between samples, injections of 6 solvent samples ranging from 1% to 3% DMSO were run. Compound measurements were performed in MICK mode (multiple injection cycles kinetic) with a dose–response of 10 concentrations. Dissociation constants for compounds (KD) were obtained by determining steady-state fit that followed the 1:1 Langmuir model.
Data analysis was performed with the Sierra Analyzer 3.4.0 software from Bruker. Signal intensities were corrected for nonspecific binding to the surface by subtracting intensities from the reference surface from those of the hIL-1β surfaces (first reference subtraction) and by subtracting the buffer injection (second reference subtraction). KD values were carried out by determining a reporting point close to the end of the injection, used for steady-state fit, in addition to a kinetic fit delivering kon- and koff-values; both fitting models followed the 1:1 Langmuir equation.
Supplementary Figure 3. De termination of binding af fi nit ie s for se l ec ted ana l ogues of 1 by SPR. a - d Gr ap hs of exemplary experimen ts are given , where the sat urat ion of hI L-1b immobil ized on a chip was monitored at various concentrations of compound 3, 12, 10, and 11, respectively. Th e saturati on reached at equ ilibri um (insert) was plo tt ed versus the admini stered concentration and the equ ilibri um bin ding constant was derived from a non-li near lea st square fitting routine. e equ ilibri um and f kinetic bin ding of (S)-2 to IL-1b (kon = 1. 15 x 105 M-1 s-1 and koff = 0. 12 s-1).

[3] = biological target: T1, IL-1β; assay: TR-FRET IL-1β/hIL-1R1 receptor displacement assay; assay type: biochemical
Protocol: After 1 h incubation at room temperature, hIL-1R1 (1–332; Alexa 647 labeled; 50 nM final concentration) and anti-His-Europium W1024 (Perkin Elmer; Cat.No. AD0401, 1 nM final concentration) were added to a final volume of 10 μl per well. […] All experiments were run in triplicates.

[4] = 19F-reporter Ki, protein 10 μM, reporter (S)-1 40 μM
[5] = 19F-reporter, individual experiments (Exp1-58), source data
[6] = source data, read-out: SPR Kd, Mean
[7] = source data, read-out: SPR Kd, individual experiments (Exp1-5)
[8] = steady-state fit, 1:1 Langmuir, read-out: SPR KD
[9] = Il1b wt, read-out: TR-FRET IC50, individual experiments
[10] = IL-1beta, 0.01 uM, per experiment
[11] = IL-1beta, 0.02 uM, per experiment
[12] = IL-1beta, 0.1 uM, per experiment
[13] = IL-1beta, 0.2 uM, per experiment
[14] = IL-1beta, 0.6 uM, per experiment
[15] = IL-1beta, 63 uM, per experiment

SMILES: Cc1ccc2c(c1)NC(=O)C2(O)c1cc(-c2ccc(C(=O)O)cc2)ccc1O (stereo not shown) [Compound 10]
- Ki [1, 4]: 75 ± 40 µM
- Ki [1, 5]: 103 µM and 47 µM
- Kd [2, 6]: 43.6 µM
- Kd [2, 7]: 58 µM and 63 µM and 27 µM and 26 µM
- Kd [2, 8]: 44 ± 17 µM
- IC50 [3, 9]: 200 µM and 134 µM
- IC50 ([3]; read-out: TR-FRET IL-1β IC50): 178 ± 38 µM

SMILES: O=C(O)c1ccccc1-c1ccc(O)c(C2(O)C(=O)Nc3cc(Cl)ccc32)c1 (stereo not shown) [Compound 11]
- Ki [1, 4]: 63 ± 41 µM
- Ki [1, 5]: 92 µM and 34 µM
- Kd [2, 6]: 31.8 µM
- Kd [2, 7]: 34 µM and 37 µM and 36 µM and 26.3 µM and 25.7 µM
- Kd [2, 8]: 32 ± 5 µM
- IC50 [3, 9]: 140 µM and 130 µM and 138 µM and 97.9 µM and 136 µM and 106 µM and 133 µM
- IC50 ([3]; read-out: TR-FRET IL-1β IC50): 126 ± 17 µM
- IC50 ([3]; summary, read-out: TR-FRET IL-1beta IC50, AVRG): 126 µM

- Ki ([1]; protein 10 μM, reporter (S)-1 40 μM, read-out: 19F-reporter Ki): < 10 µM
- koff ([2]; kinetic fit): 0.12 s⁻¹
- kon ([2]; kinetic fit): 120000 M⁻¹ s⁻¹
- Kd [2, 6]: 1.1 µM
- Kd [2, 7]: 1.1 µM (2×) and 1 µM
- Kd [2, 8]: 1.1 µM
- TR-FRET calculated % inhibition [3, 10]: -3% and -1% and 0%
- TR-FRET raw data [3, 10]: 90 and 159 and 163 and 162 and 161
- TR-FRET calculated % inhibition [3, 11]: -1% and 1% and 0%
- TR-FRET raw data [3, 11]: 89 and 157 and 158 and 161
- TR-FRET calculated % inhibition [3, 12]: 1% and 3%
- TR-FRET raw data [3, 12]: 87 and 156 and 155 and 157
- TR-FRET calculated % inhibition [3, 13]: 10% and 7%
- TR-FRET raw data [3, 13]: 78 and 144 and 149 and 146 and 151
- inhibition at 0.2 µM ([3]; IL-1beta, 0.2 uM, per experiment, read-out: TR-FRET calculated % inhibition): 13%
- TR-FRET calculated % inhibition [3, 14]: 20% and 23% and 21%
- TR-FRET raw data [3, 14]: 67 and 130 and 131 and 128
- inhibition at 0.6 µM ([3]; IL-1beta, 0.6 uM, per experiment, read-out: TR-FRET calculated % inhibition): 28%
- TR-FRET calculated % inhibition ([3]; IL-1beta, 2 uM, per experiment): 40% and 39%
- inhibition at 2 µM ([3]; IL-1beta, 2 uM, per experiment, read-out: TR-FRET calculated % inhibition): 55%
- TR-FRET calculated % inhibition ([3]; IL-1beta, 6 uM, per experiment): 61% and 62% and 60%
- inhibition at 6 µM ([3]; IL-1beta, 6 uM, per experiment, read-out: TR-FRET calculated % inhibition): 72%
- TR-FRET calculated % inhibition ([3]; IL-1beta, 20 uM, per experiment): 80% and 78% and 79%
- inhibition at 20 µM ([3]; IL-1beta, 20 uM, per experiment, read-out: TR-FRET calculated % inhibition): 88%
- TR-FRET calculated % inhibition [3, 15]: 92%
- TR-FRET raw data [3, 15]: 16 and 27 and 29 and 28
- inhibition at 63 µM ([3]; IL-1beta, 63 uM, per experiment, read-out: TR-FRET calculated % inhibition): 95%
- TR-FRET raw data ([3]; IL-1beta, 200 uM, per experiment): 12 and 16 and 17
- inhibition at 200 µM ([3]; IL-1beta, 200 uM, per experiment, read-out: TR-FRET calculated % inhibition): 100%
- IC50 [3, 9]: 2.1 µM and 4.2 µM and 4.6 µM and 4.4 µM and 4.7 µM
- IC50 ([3]; read-out: TR-FRET IL-1β IC50): 4 ± 1.1 µM
SMILES: Cc1ccc2c(c1)NC(=O)[C@@]2(c1cn[nH]c1)c1cc(-c2ccc(C(=O)O)cc2C(=O)O)ccc1O [Compound (S)-2]
